Our source for the IC50 values is patent publication US10981917B2, “Heterocyclic compound, its preparation method, and pharmaceutical composition comprising the same” (Daewoong Pharmaceutical Co., Ltd., priority 2017, dated 2021).

Structures are written as SMILES.

The target of this assay is PRS (prolyl-tRNA synthetase) protein, PRS portion of EPRS (Homo sapiens (Human), UniProt P07814). The experiment in a line: PRS enzyme activity inhibition experiment ([3H]proline, liquid scintillation). The format is biochemical. As to conditions: purified PRS protein, 37° C. for 5 to 10 minutes. Summed up: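 Values are % inhibition or IC50 ranges (A ≤100 nM, B 100–500 nM, C ≥500 nM) from [3H]proline incorporation measured by liquid scintillation. PRS portion of human EPRS, reacted 5–10 min at 37 °C in pH 7.4 phosphate buffer containing 5 mM ATP and tRNA, compound at 1 μM.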
Chain of PRS (prolyl-tRNA synthetase) protein, PRS portion of EPRS (P07814 1007-1512): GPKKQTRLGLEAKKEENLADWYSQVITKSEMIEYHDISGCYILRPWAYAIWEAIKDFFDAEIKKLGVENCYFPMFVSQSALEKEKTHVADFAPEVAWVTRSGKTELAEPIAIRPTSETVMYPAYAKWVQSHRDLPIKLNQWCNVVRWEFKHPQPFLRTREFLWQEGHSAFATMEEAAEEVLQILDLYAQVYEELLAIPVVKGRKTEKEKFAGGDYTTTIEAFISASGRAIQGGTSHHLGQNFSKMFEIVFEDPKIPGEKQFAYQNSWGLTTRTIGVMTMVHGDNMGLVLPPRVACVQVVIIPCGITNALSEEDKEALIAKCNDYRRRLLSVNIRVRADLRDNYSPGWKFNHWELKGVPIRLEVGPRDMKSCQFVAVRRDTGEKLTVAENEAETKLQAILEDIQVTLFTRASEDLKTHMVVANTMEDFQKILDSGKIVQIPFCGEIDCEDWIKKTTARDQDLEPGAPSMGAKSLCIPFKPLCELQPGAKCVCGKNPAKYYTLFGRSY
The compound `C/C(=C\[C@H]1NCCC[C@@H]1O)Cn1c(CO)nc2cc(Cl)c(Cl)cc21` [Example 224, (2R,3S)-2-((E)-3-(5,6-dichloro-2-(hydroxymethyl)-1H-benzo[d]imidazol-1-yl)-2-methylprop-1-en-1-yl)piperidin-3-ol] returned an IC50 of no less than 500 nM. As for `O[C@H]1CCCN[C@@H]1CCCn1cnc2cc(Cl)c(F)cc21` [Example 34, (2R,3S)-2-(3-(5-chloro-6-fluoro-1H-benzo[d]imidazol-1-yl)propyl)piperidin-3-ol], the IC50 is 100 to 500 nM. Compound `O[C@H]1CCCN[C@@H]1CCCn1cnc2cc(Br)cc(Cl)c21` [Example 70, (2R,3S)-2-(3-(5-bromo-7-chloro-1H-benzo[d]imidazol-1-yl)propyl)piperidin-3-ol] gave a half-inhibitory concentration (IC50) of no more than 100 nM. Consider `O[C@H]1CCCN[C@@H]1CCCn1cnc2cc(Cl)cc(-c3ccon3)c21` [Example 90, (2R,3S)-2-(3-(5-chloro-7-(Isoxazol-3-yl)-1H-benzo[d]imidazol-1-yl)propyl)piperidin-3-ol], for which the IC50 was in the range of 100 to 500 nM.

In the case of `CC(C)Cn1c(=O)n(C)c(=O)c2c1ncn2CCC[C@H]1NCCC[C@@H]1O` [Example 165, 7-(3-((2R,3S)-3-hydroxypiperidin-2-yl)propyl)-3-isobutyl-1-methyl-1H-purine-2,6(3H,7H)-dione], the IC50 was no less than 500 nM. The same measure for `O[C@H]1CCCN[C@@H]1CCCn1cnc2cccc(C(F)(F)F)c21` [Example 16, (2R,3S)-2-(3-(7-(trifluoromethyl)-1H-benzo[d]imidazol-1-yl)propyl)piperidin-3-ol]: 100 to 500 nM; for `O[C@H]1CCCN[C@@H]1CCCn1cnc2ccc(F)cc21` [Example 8, (2R,3S)-2-(3-(6-fluoro-1H-benzo[d]imidazol-1-yl)propyl)piperidin-3-ol]: no less than 500 nM. With `O[C@H]1CCCN[C@@H]1/C=C/Cn1cnc2c(Cl)c(Cl)ccc21` [Example 174, (2R,3S)-2-((E)-3-(4,5-dichloro-1H-benzo[d]imidazol-1-yl)prop-1-en-1-yl)piperidin-3-ol] the figure was no more than 100 nM; with `Cc1c(Br)cnc2c1ncn2CCC[C@H]1NCCC[C@@H]1O` [Example 132, (2R,3S)-2-(3-(6-bromo-7-methyl-3H-imidazo[4,5-b]pyridin-3-yl)propyl)piperidin-3-ol], 100 to 500 nM; with `C/C(=C\[C@H]1NCCC[C@@H]1O)Cn1cnc2c(C)c(Br)ccc21` [Example 222, (2R,3S)-2-((E)-3-(5-bromo-4-methyl-1H-benzo[d]imidazol-1-yl)-2-methylprop-1-en-1-yl)piperidin-3-ol], no less than 500 nM. Regarding `O[C@H]1CCCN[C@@H]1CCCn1cnc2nc(Cl)c(Cl)cc21` [Example 127, (2R,3S)-2-(3-(5,6-dichloro-1H-imidazo[4,5-b]pyridin-1-yl)propyl)piperidin-3-ol], the IC50 was in the range of 100 to 500 nM. Compound `O[C@H]1CCCN[C@@H]1CCCn1cnc2nccc(Cl)c21` [Example 126, (2R,3S)-2-(3-(7-chloro-1H-imidazo[4,5-b]pyridin-1-yl)propyl)piperidin-3-ol] yielded an IC50 of 100 to 500 nM. The compound `O[C@H]1CCCN[C@@H]1CCCn1nc(C2CC2)c2cc(Cl)ccc21` [Example 155, (2R,3S)-2-(3-(5-chloro-3-cyclopropyl-1H-indazol-1-yl)propyl)piperidin-3-ol] gave an IC50 of no less than 500 nM. The same measure for `O[C@H]1CCCN[C@@H]1CCCn1cnc2cc(F)ccc21` [Example 7, (2R,3S)-2-(3-(5-fluoro-1H-benzo[d]imidazol-1-yl)propyl)piperidin-3-ol]: 100 to 500 nM; for `O[C@H]1CCCN[C@@H]1/C=C/Cn1cnc2c(Cl)c(Cl)cnc21` [Example 189, (2R,3S)-2-((E)-3-(6,7-dichloro-3H-imidazo[4,5-b]pyridin-3-yl)prop-1-en-1-yl)piperidin-3-ol]: 100 to 500 nM.

In turn, `Cc1sccc1-c1cc(Cl)cc2ncn(CCC[C@H]3NCCC[C@@H]3O)c12` [Example 92, (2R,3S)-2-(3-(5-chloro-7-(2-methylthiophen-3-yl)-1H-benzo[d]imidazol-1-yl)propyl)piperidin-3-ol] came in with an IC50 of 100 to 500 nM. The compound `O=C(O)c1cn(C/C=C/[C@H]2NCCC[C@@H]2O)c2cccc(Cl)c12` [Example 205, 4-chloro-1-((E)-3-((2R,3S)-3-hydroxypiperidin-2-yl)allyl)-1H-indole-3-carboxylic acid] came in with a 50% inhibitory concentration (IC50) of no less than 500 nM.

In turn, `O[C@H]1CCCN[C@@H]1CCCn1cnc2cc(-c3cccc(F)c3)ccc21` [Example 22, (2R,3S)-2-(3-(5-(3-fluorophenyl)-1H-benzo[d]imidazol-1-yl)propyl)piperidin-3-ol] gave an IC50 of no less than 500 nM.

In the case of `COC(=O)c1cn(CCC[C@H]2NCCC[C@@H]2O)c2cc(Br)ccc12` [Example 151, methyl 6-bromo-1-(3-((2R,3S)-3-hydroxypiperidin-2-yl)propyl)-1H-indole-3-carboxylate], the IC50 was in the range of 100 to 500 nM.

For `Oc1nc2cc(Cl)c(Cl)cc2n1CCC[C@H]1NCCC[C@@H]1O` [Example 144, 5,6-dichloro-1-(3-((2R,3S)-3-hydroxypiperidin-2-yl)propyl)-1H-benzo[d]imidazol-2-ol], the IC50 was no less than 500 nM. The compound `Cc1c(F)ccc2c1ncn2C/C=C/[C@H]1NCCC[C@@H]1O` [Example 167, (2R,3S)-2-((E)-3-(5-fluoro-4-methyl-1H-benzo[d]imidazol-1-yl)prop-1-enyl)piperidin-3-ol] registered a half-inhibitory concentration (IC50) of 100 to 500 nM. The same measure for `O=C(O)c1cn(C/C=C/[C@H]2NCCC[C@@H]2O)c2ccc(Br)cc12` [Example 204, 5-bromo-1-((E)-3-((2R,3S)-3-hydroxypiperidin-2-yl)allyl)-1H-indole-3-carboxylic acid]: no less than 500 nM; for `O[C@H]1CCCN[C@@H]1CCCn1cnc2cc(Br)c(Br)cc21` [Example 54, (2R,3S)-2-(3-(5,6-dibromo-1H-benzo[d]imidazol-1-yl)propyl)piperidin-3-ol]: no less than 500 nM.

For the compound `O[C@H]1CCCN[C@@H]1/C=C/Cn1cnc2c(F)cc(F)cc21` [Example 179, (2R,3S)-2-((E)-3-(4,6-difluoro-1H-benzo[d]imidazol-1-yl)prop-1-en-1-yl)piperidin-3-ol], the IC50 was 100 to 500 nM. With `Cc1nc2cc(Br)c(F)c(F)c2n1C/C=C/[C@H]1NCCC[C@@H]1O` [Example 193, (2R,3S)-2-((E)-3-(5-bromo-6,7-difluoro-2-methyl-1H-benzo[d]imidazol-1-yl)prop-1-en-1-yl)piperidin-3-ol] the figure was no less than 500 nM; with `O[C@H]1CCCN[C@@H]1CCCn1cnc2cc(Cl)cc(-c3cnn(C(F)F)c3)c21` [Example 89, (2R,3S)-2-(3-(5-chloro-7-(1-(difluoromethyl)-1H-pyrazol-4-yl)-1H-benzo[d]imidazol-1-yl)propyl)piperidin-3-ol], no more than 100 nM. In turn, `O[C@H]1CCCN[C@@H]1CCCn1cnc2cccc(Br)c21` [Example 5, (2R,3S)-2-(3-(7-bromo-1H-benzo[d]imidazol-1-yl)propyl)piperidin-3-ol] returned a half-inhibitory concentration (IC50) of 100 to 500 nM. As to `O[C@H]1CCCN[C@@H]1CCCn1cnc2c(Cl)c(C(F)(F)F)ccc21` [Example 66, (2R,3S)-2-(3-(4-chloro-5-(trifluoromethyl)-1H-benzo[d]imidazol-1-yl)propyl)piperidin-3-ol], the IC50 is no less than 500 nM.

The term IC50 denotes the concentration needed to halve the response being measured. Low readings indicate higher potency, high ones lower potency.
